Tests used:
LKB1−/− macrophages = experiment: Cytokine secretion in LKB1−/− macrophages; type: cell-based, mouse
Excerpt: FIGS. 9A to 9I. Genetic evidence using LKB1-deficient macrophages and a drug-resistant mutant of SIK2 to establish that inhibition of SIKs induces IL-10 production. (FIG. 9A) Loss of CRTC3 phosphorylation in LKB1−/− MEFs. (FIG. 9B) Enhanced IL-10 production and reduced secretion of pro-inflammatory cytokines in LysM-Cre-LKB1flox/flox macrophages (n=3, mean±SD). (FIG. 9C) Sequence alignment of AMPK-related kinases. The ‘gatekeeper’ site is indicated using an asterisk. (FIG. 9D) […] curves of KIN112 against different SIK2 mutants. […]. (FIG. 9F) Induction of HA-SIK2 (WT and [T96Q]) expression in RAW264.7 macrophages. […]. RAW264.7 cells were induced to express HA-SIK2-WT or HA-SIK2[T96]. As a further control, cells transduced with the empty vector and which only express endogenous SIK isoforms were also used. […]. […]. IL-10^−/− mice on a C57BL/6 background were purchased from The Jackson Laboratory, Maine, USA. LKB1^flox/flox mice on a C57BL/6 background were a generous gift from Alan Ashworth and were crossed with LysM-Cre mice to delete LKB1 in macrophages. Mice were bred at the University of Dundee under specific pathogen-free conditions in accordance with European Union regulations. Water supply for IL-10^−/− mice was supplemented with antibiotics to prevent the development of colitis. Work was approved by local ethical review and was performed with a UK Home Office project license. […]

[1] = system: Brain-Specific Kinases (BRSKs); experiment: Kinase assays, BRSKs; type: biochemical; details: in vitro
Method: (§1) FLAG-CRTC3 was immunoprecipitated using anti-FLAG M2 agarose, washed in kinase buffer (50 mM Tris/HCl pH 7.4, 10 mM Mg acetate, 0.1 mM EGTA, 2 mM DTT) and reactions initiated by adding 4 U/ml recombinant kinase with 0.1 mM ATP (specific activity 3000 cpm/pmol). Phosphorylation of CRTC3 was monitored by autoradiography as well as immunoblotting using phosphospecific antibodies raised against Ser162, Ser329 and Ser370.

TBK1/IKKε−/− fibroblasts = experiment: nurr77 mRNA in IL-1 stimulated TBK1/IKKε−/− embryonic fibroblasts; type: cell-based, mouse; details: fibroblasts not expressing the IKK-related kinases
Method: Bone marrow-derived macrophages were differentiated for 7 days in DMEM supplemented with 5 ng/ml recombinant M-CSF (R&D systems), 2 mM glutamine, 10% foetal calf serum (FCS), penicillin and streptomycin. RAW264.7 cells and immortalized mouse embryonic fibroblasts (MEFs) from TBK1/IKKε^+/−, TBK1/IKKε^−/−, LKB1^+/+ and LKB1^−/− mice were cultured in DMEM containing 10% FCS, 2 mM glutamine and penicillin and streptomycin, while THP-1 monocytes were grown in RPMI-1640 supplemented with 10% FCS and antibiotics. For the culture of primary human macrophages, PBMCs were isolated from human blood using Ficoll and the monocytes were purified using anti-CD14 magnetic beads (Miltenyi Biotec). Monocytes were differentiated into macrophages for 6 days in the presence of 100 ng/ml M-CSF.

[2] = system: TLR-stimulated macrophages; experiment: qPCR of CREB-dependent gene mRNA in TLR-stimulated macrophages; type: cell-based, mouse
Method: Bone-marrow derived macrophages were differentiated for 7 days in DMEM supplemented with 5 ng/ml recombinant M-CSF (R&D systems), 2 mM glutamine, 10% foetal calf serum, penicillin and streptomycin. […]
mRNA was extracted from macrophages using the RNeasy Micro Kit following the manufacturers' instructions (Qiagen). cDNA was generated from 1 μg of total RNA using the iScript cDNA synthesis kit and quantified by qPCR using the SsoFast EvaGreen Supermix on a CFX96 real time system (Bio-Rad Laboratories). The relative expression of each gene was calculated from Ct values using the Pfaffl method^30 and was normalized against the mRNA levels of 18S RNA. The following primers were used: IL-10-F, […]; IL-10-R, […]; c-Fos-F, […]; c-Fos-R, […]; nurr1-F, […]; nurr1-R, […]; nurr77-F, […]; nurr77-R, […]; 18S-F, […]; 18S-R, […]; IL-1ra-F, […]; IL-1ra-R, […]; SPHK1-F, […]; SPHK1-R, […]; LIGHT-F, […]; LIGHT-R, […]; ArgI-F, […]; ArgI-R, […]; IFN-F, […]; IFNγ-R, […].
[…]. Biochem J 434:93-104) using the indicated antibodies. RNA was extracted using the RNeasy Micro Kit (Qiagen). cDNA was generated using the iScript cDNA synthesis kit and quantified by qPCR using the SsoFast EvaGreen Supermix (Bio-Rad Laboratories). The relative expression of each gene was calculated from Ct values using the Pfaffl method (Pfaffl M W (2001) A new mathematical model for relative quantification in real-time RT-PCR. Nucleic Acids Res 29:e45) and was normalized against the mRNA levels of 18S or GAPDH RNA. Fold-induction for each gene was reported relative to untreated control cells, which was set to 1. The concentrations of TNFα, IL-6, IL-10, IL-12p40, and RANTES in culture supernatants were measured using the Bio-Plex Pro Assay system from Bio-Rad. Further details in supplementary information.
mRNA was extracted from cells using the RNeasy Micro Kit following the manufacturers' instructions (Qiagen). cDNA was generated from 1 μg of total RNA using the iScript cDNA synthesis kit and quantified by qPCR using the SsoFast EvaGreen Supermix on a CFX96 real time system (Bio-Rad Laboratories). The relative expression of each gene was calculated from Ct values using the Pfaffl method (5) and was normalized against the mRNA levels of 18S RNA or GAPDH. Results are reported relative to untreated control cells, which was set to 1. The following primers were used: […]

LKB1−/− cells = experiment: CREB-dependent gene transcription in IL-1 stimulated LKB1+/+ and LKB1−/− MEFs; type: cell-based, mouse
NUAK isoforms = experiment: Kinase assays, NUAK isoforms; type: biochemical; details: in vitro
Method: as §1

[3] = LPS-stimulated macrophages with MRT67307

| SMILES | IL-10, IL-12 and TNFα secretion in response to LPS (LKB1−/− macrophages) | inhibition of BRSKs [1] | transcription of CREB-dependent nurr77 gene (TBK1/IKKε−/− fibroblasts) | time at which IL-10 mRNA levels reach a maximum [2, 3] [h] | time at which IL-10 mRNA returns to near basal levels [2, 3] [h] | mRNA of CREB-dependent genes c-fos, nurr1 and nurr77 ([2]; TLR-stimulated macrophages) | IL-10 mRNA ([2]; TLR/LPS-stimulated macrophages) | CREB-dependent gene transcription (LKB1−/− cells; LKB1+/+ cells) | transcription of Nurr1 and Nurr77 (LKB1−/− cells; LKB1−/− cells) | inhibition of NUAK isoforms (NUAK isoforms) |
| --- | --- | --- | --- | --- | --- | --- | --- | --- | --- | --- |
| COc1ccc(N(C(=O)Nc2c(C)cccc2C)c2cc(Nc3ccc(N4CCN(C)CC4)cc3)ncn2)c(OC)c1 [HG-9-91-01, 1-(2,4-dimethoxyphenyl)-3-(2,6-dimethylphenyl)-1-(6-((4-(4-methylpiperazin-1-yl)phenyl)amino)pyrimidin-4-yl)urea] | unaffected | – | – | – | – | – | – | – | – | – |
| O=C(NCCCNc1nc(Nc2cccc(CN3CCOCC3)c2)ncc1C1CC1)C1CCC1 [MRT67307] | – | did not inhibit | could still enhance | 1 | 4 | increase | dramatically increased | enhanced | only be increased to a small extent | comparable potency to the IKK-related kinases |

— patent US10233157B2, “SIK inhibitor for use in a method of treating an inflammatory and/or immune disorder” (Dana-Farber Cancer Institute, Inc., priority 2012, dated 2019)
